Entries after “also recorded” stand apart in the source; their conditions may differ.

In this test the test system is acetylated tubulin. Description: Measurement of acetylated tubulin in spleen after oral administration (Western blotting). Format: in vivo. The note with it: BALE/c mice, female, 30 mg/kg orally. As for the experimental part: Compound A (compound of Example 36) and compound B (compound of Example 37) were each orally administered to BALE/c mice (female, Charles River Japan, 8-weeks old when used) at a dose of 30 mg/kg. Compound A and compound B were each suspended in 0.5% methyl cellulose solution, and the suspensions were each orally administered at a dose of 10 mL/kg. For control group, 0.5% methyl cellulose solution was administered. After administration, a part (about 30 mg) of the spleen was recovered into tube containing beads (Lysing Matrix I, Cat. 6918-100, MP Biomedicals), and cryopreserved at −80° C. until used.
0.5 mL RIPA buffer containing protease inhibitor (Cat. 25955-11, Nacalai tesque) was added to the spleen placed in Lysing Matrix I tube, and the spleen was crushed over 20 sec by FastPrep-24. The sample tube was centrifuged (15,000 rpm, 4° C.,) for 5 min, and the supernatant was transferred to another tube. […] The protein amount of the sample was measured using BCA protein assay kit (Cat. 23227, Pierce). […]
The membrane was immersed in blocking reagent (Cat. NYPBR01, TOYOBO) at room temperature for 1 hr, washed, and reacted with primary antibody overnight at 4° C. After washed, the membrane was reacted with secondary antibody at room temperature for 1 hr, and immersed in ECL prime detecting solution (Cat. RPN2232, GE), and the chemiluminescence was detected by luminoimage analyzer LAS3000. […]

With `O=C(NC[C@H]1COCCN1C(=O)c1ccccc1)c1ccc(-c2noc(C(F)(F)F)n2)cc1` [compound A, N-(((3S)-4-benzoylmorpholin-3-yl)methyl)-4-(5-(trifluoromethyl)-1,2,4-oxadiazol-3-yl)benzamide], the “acetylation of tubulin in spleen (protein expression level of acetylated tubulin, fold increase relative to 0.5% methyl cellulose solution administration group)” value is “increase in acetylated tubulin; also recorded: increased most acetylation of tubulin in spleen 8 hr after administration”. Turning to `O=C(NC[C@H]1COCCN1C(=O)c1cc(Cl)cc(Cl)c1)c1ccc(-c2noc(C(F)(F)F)n2)cc1` [compound B, N-(((3S)-4-(3,5-dichlorobenzoyl)morpholin-3-yl)methyl)-4-(5-(trifluoromethyl)-1,2,4-oxadiazol-3-yl)benzamide], the “acetylation of tubulin in spleen (protein expression level of acetylated tubulin, fold increase relative to 0.5% methyl cellulose solution administration group)” value is recorded as “increase in acetylated tubulin; also recorded: increased most acetylation of tubulin in spleen 8 hr after administration”.
